Laboratory results from patent publication US20250230438A1, “NEURAL REPAIR THROUGH INHIBITION OF REG3A SIGNALING” (UNIVERSITY OF SOUTH CAROLINA, priority 2023, published 2025).
“Also recorded” adds a separate entry of the source.

B1: recREG3A: recombinant human REG3A (recREG3A) (protein)
chain: EDFQKEVPSPRTSCPMGYKAYRSHCYALVMTPKSWFQADLVCQKRPSGHLVSILSGGEASFVSSLVNGRVDNYQDIWIGLHDPTMGQQPNGGGWEWSNSDVLNYLNWDGDPSSTVNRGHCGSLTASSGFLKWGDYYCDGTLPFVCKFKQ

Assays:
[1] = tested on: KHSRP; assay: Axonal KHSRP protein levels in DRG cultures; assay type: cell-based, mouse; settings: for effect on recREG3A-dependent increase in axonal KHSRP: co-treatment with recREG3A
Excerpt: (§1) Specifically, it was observed that KHSRP protein increases in regenerating sciatic nerve axons, which promotes decay of regeneration-associated mRNAs including Gap43 and Snap25 mRNAs. Thus, herein it was investigated whether REG3A effects might converge on Khsrp mRNA.

[2] = tested on: dorsal root ganglia (DRG) neurons; assay: Axon growth and branching in dissociated adult mouse DRG cultures; assay type: cell-based; settings: for effect on recREG3A-induced decrease in axon growth / effect on recREG3A-induced increase in axon branching: co-treatment with recREG3A
Excerpt: Previously, it was shown that Reg3A mRNA expression increases after nerve injury and the mRNA is transported into regenerating peripheral nerve axons and spinal cord axon. The spinal cord model used a peripheral nerve graft to support regenerating of ascending spinal cord axons after transection. To determine if REG3A protein might affect axon growth, whether the dorsal root ganglia (DRG) neurons respond to recombinant human REG3A (recREG3A) was investigated.
shRNA depletion of Reg3A mRNA was used to determine if the endogenous REG3A protein reduces axon growth.
as §1

[3] = tested on: growth cone calcium; assay: Axonal/growth cone calcium by GCaMP fluorescence in DRG spot cultures; assay type: cell-based, mouse; settings: DRG spot cultures with AAV9-GCaMP
Excerpt: The findings above provide circumstantial but not direct evidence for elevated axoplasmic calcium as a key regulator of REG3A's effects on axons. As such, herein it was investigated whether REG3A increases calcium levels in DRG neurons using genetically encoded GCaMP fluorescent calcium indicator in DRG spot cultures. For this, DRG spot cultures were co-transduced with AAV9-GCaMP. […] Axonal calcium levels are known to increase immediately after axotomy but based on translational regulation of different axonal mRNAs that respond to elevated vs. normal axonal calcium levels, the axotomy induced increase in calcium returns to pre-injury levels within 16 hours after axotomy to allow translation of axonal mRNAs encoding regeneration-associated proteins. Thus, intra-axonal calcium levels in regenerating axons were monitored beginning at 16 hours after axotomy. The regenerating axons show an oscillatory GCaMP signal with broad peaks approximately every 50-70 min over a 4-hour period in AAV9-shCntl-transduced DRG spot cultures (FIG. 8E).

[4] = tested on: eIF2α^PS51; assay: eIF2α^PS51 immunofluorescence in growth cones of DRG cultures; assay type: cell-based; settings: acute treatment of adult mouse DRG cultures
Excerpt: Previously, it was observed that axonal Khsrp mRNA translation is increased by activation of the PERK and subsequent PERK-dependent serine 51 phosphorylation of the translation initiation factor eIF2a. […] PERK inhibition similar reduced the REG3A-dependent translation of axonal GFP^MYR5′/3′khsrp in FRAP assays (FIG. 9C).

Molecule	effect on recREG3A-dependent increase in axonal KHSRP [1]	effect on recREG3A-induced decrease in axon growth [2]	effect on recREG3A-induced increase in axon branching [2]	axon branching ([2]; bath application of recREG3A, adult mouse sensory neurons)	axon growth ([2]; bath application of recREG3A, adult mouse sensory neurons, 24-hour exposure)	growth cone / intra-axonal calcium levels (GCaMP) [3]	growth cone / intra-axonal calcium levels (GCaMP) ([3]; listed as RecREG3A)	KHSRP levels in distal axons ([1]; recREG3A application)	eIF2α^PS51 levels in growth cones [4]
O=C(O)CN(CC(=O)O)c1ccccc1OCCOc1ccccc1N(CC(=O)O)CC(=O)O [BAPTA]	also attenuated	–	–	–	–	–	–	–	–
CC(=O)OCOC(=O)CN(CC(=O)OCOC(C)=O)c1ccccc1OCCOc1ccccc1N(CC(=O)OCOC(C)=O)CC(=O)OCOC(C)=O [BAPTA-AM]	attenuated	blocked	blocked	–	–	–	–	–	–
C[C@@H]1C[C@@H]([C@H](O)CC2CC(=O)NC(=O)C2)C(=O)[C@@H](C)C1 [cycloheximide]	did not occur	prevented	prevented	–	–	–	–	–	–
B1	–	–	–	increased axon branching	reduced axon growth; also recorded: decreases axon extension	significantly increased growth cone calcium	increases	increased KHSRP levels in distal axons	increased eIF2α^PS51 levels in growth cones
